Data taken from ChEMBL document CHEMBL1201862, “PubChem BioAssay data set” (2004).
Activity calls are given as the source filed them.

Experiments:
[1] = molecular target: T1, Ubiquitin-conjugating enzyme E2 N (Homo sapiens, UniProt P61088); format: functional;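 further: Dose-response confirmation in a TR-FRET assay detecting UBC13-driven polyubiquitin chain formation, inhibition measured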
T1 sequence (P61088 whole entry): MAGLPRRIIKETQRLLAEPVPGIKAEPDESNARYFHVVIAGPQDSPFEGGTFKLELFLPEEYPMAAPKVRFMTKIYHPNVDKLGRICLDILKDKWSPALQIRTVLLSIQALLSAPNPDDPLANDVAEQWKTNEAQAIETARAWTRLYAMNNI

[2] = molecular target: Cytochrome P450 2C9 (Homo sapiens, UniProt P11712)
[3] = molecular target: T2, Polyadenylate-binding protein 1 (Homo sapiens, UniProt P11940); assay: PABP1 MLLE–PAM2 interaction inhibitors, dose response, miRNA deadenylation inhibitor project, biochemical, fluorescence polarization, Cy5-PAM2 peptide, secondary (AID 602260); format: functional; conditions: read-out: IC50_Mean
[4] = molecular target: T2, Polyadenylate-binding protein 1; assay: PABP1 MLLE–PAM2 binding inhibitor potency, dose response, biochemical, fluorescence polarization, FITC-PAM2 peptide (AID 602259); format: functional; conditions: read-out: IC50_Mean
[5] = cells; format: functional, cell-based
[6] = cells; format: functional, cell-based; remark: listed apart in the source
[7] = NIH-3T3 fibroblast cytotoxicity, dose response, cytotoxicity control, cell-based, fluorescence, Alamar Blue, secondary assay (AID 2327); format: functional;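 further: NIH-3T3 mouse fibroblasts cultured with fluconazole at 8 µg/mL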
[8] = C. albicans growth with fluconazole, confirmation, fluorescence, retest (AID 2467); format: functional, cell-based
[9] = A549 cell cytotoxicity, dose response, cytotoxicity control, plate reader, cherry-pick, antagonist series (AID 743412); format: functional, cell-based
[10] = MC4R antagonists, dose response, counter-screen for LGR2 antagonist project, cell-based, plate reader, cherry pick (AID 743444); format: functional;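 further: transfected HEK 293 cells stimulated with alpha-MSH peptide; potency of inhibitors of the alpha-MSH evoked signal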
[11] = HepG2 cell cytotoxicity, dose response, cytotoxicity control, plate reader, cherry-pick, antagonist series (AID 743416); format: functional, cell-based
[12] = HEK293 cell cytotoxicity, dose response, cytotoxicity control, plate reader, cherry-picked samples (AID 743446); format: functional, cell-based
[13] = LGR2 antagonists, dose response, cell-based, HEK293, CRE-luciferase reporter, cherry pick, set 2 (AID 743343); format: functional;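 further: transfected cells were stimulated with diluted bursicon conditioned medium after compound addition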
[14] = molecular target: T3, Calpain-2 catalytic subunit (Sus scrofa, UniProt P43367); assay: pig calpain II inhibitor potency, dose response, biochemical, fluorogenic peptide substrate (AID 1420); format: functional
T3 sequence (P43367 whole entry): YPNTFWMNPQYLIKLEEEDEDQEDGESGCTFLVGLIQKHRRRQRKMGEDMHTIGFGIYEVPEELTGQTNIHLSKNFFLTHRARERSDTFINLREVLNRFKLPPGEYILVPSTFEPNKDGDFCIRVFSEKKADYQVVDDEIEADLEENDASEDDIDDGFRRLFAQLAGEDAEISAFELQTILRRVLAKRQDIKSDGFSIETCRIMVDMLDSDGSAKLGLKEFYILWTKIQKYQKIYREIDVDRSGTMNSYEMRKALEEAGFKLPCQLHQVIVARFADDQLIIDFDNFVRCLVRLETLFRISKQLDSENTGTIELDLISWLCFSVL

[15] = molecular target: T4, Leucine aminopeptidase (Plasmodium falciparum 3D7, UniProt Q8IL11); assay: P. falciparum M17LAP inhibitors, primary screen, biochemical, fluorogenic H-Leu-NHMec substrate, 1536-well (AID 1619); format: functional
T4 sequence (Q8IL11 whole entry): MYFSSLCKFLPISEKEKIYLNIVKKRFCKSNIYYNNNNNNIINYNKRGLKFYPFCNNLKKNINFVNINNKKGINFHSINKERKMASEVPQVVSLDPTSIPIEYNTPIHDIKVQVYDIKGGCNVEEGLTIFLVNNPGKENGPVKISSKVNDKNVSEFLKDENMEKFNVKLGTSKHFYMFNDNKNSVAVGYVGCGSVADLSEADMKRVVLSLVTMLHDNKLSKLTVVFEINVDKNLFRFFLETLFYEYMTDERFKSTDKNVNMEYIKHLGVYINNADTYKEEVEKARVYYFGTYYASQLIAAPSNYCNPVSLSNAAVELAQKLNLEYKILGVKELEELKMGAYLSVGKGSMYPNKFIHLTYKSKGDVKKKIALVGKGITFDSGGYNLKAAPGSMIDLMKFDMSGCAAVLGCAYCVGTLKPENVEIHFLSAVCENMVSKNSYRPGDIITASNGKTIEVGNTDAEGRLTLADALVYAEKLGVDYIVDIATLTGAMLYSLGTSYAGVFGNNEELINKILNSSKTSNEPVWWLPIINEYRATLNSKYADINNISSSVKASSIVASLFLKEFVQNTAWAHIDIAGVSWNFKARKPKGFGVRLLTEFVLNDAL

[16] = molecular target: Paired box protein Pax-8 (Homo sapiens, UniProt Q06710); assay: inhibitors of PAX8-driven TPO luciferase reporter, dose response, RMG-I cells, cherry-pick (AID 687027); format: functional, cell-based;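 further: luciferase reporter driven by Pax8 target thyroperoxidase promoter measured by SteadyGlo luminescence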
[17] = molecular target: Cytochrome P450 2C19 (Homo sapiens, UniProt P33261); assay: Cytochrome panel assay with activity outcomes. Panel member name: p450-cyp2c19 Compounds with AC50 equal or less than 10 uM are considered active; format: functional; conditions: read-out: AC50
[18] = molecular target: T5, Cytochrome P450 1A2 (Homo sapiens, UniProt P05177);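 further: PubChem cytochrome P450 panel assay, CYP1A2 panel member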
T5 sequence (P05177 whole entry): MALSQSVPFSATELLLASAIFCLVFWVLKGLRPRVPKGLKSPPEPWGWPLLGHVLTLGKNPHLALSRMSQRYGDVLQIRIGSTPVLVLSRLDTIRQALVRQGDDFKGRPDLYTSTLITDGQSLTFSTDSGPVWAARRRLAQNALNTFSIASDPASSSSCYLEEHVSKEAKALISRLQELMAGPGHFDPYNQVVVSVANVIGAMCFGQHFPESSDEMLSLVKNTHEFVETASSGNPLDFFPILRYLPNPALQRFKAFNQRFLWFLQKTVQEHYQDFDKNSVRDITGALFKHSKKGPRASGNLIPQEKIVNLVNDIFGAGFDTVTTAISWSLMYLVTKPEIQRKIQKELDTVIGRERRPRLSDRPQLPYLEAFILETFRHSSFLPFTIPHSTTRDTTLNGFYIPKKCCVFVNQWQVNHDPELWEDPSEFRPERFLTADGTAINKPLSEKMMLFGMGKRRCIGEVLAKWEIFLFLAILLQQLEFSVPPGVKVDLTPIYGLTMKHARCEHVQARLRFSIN

T2 sequence (P11940 whole entry): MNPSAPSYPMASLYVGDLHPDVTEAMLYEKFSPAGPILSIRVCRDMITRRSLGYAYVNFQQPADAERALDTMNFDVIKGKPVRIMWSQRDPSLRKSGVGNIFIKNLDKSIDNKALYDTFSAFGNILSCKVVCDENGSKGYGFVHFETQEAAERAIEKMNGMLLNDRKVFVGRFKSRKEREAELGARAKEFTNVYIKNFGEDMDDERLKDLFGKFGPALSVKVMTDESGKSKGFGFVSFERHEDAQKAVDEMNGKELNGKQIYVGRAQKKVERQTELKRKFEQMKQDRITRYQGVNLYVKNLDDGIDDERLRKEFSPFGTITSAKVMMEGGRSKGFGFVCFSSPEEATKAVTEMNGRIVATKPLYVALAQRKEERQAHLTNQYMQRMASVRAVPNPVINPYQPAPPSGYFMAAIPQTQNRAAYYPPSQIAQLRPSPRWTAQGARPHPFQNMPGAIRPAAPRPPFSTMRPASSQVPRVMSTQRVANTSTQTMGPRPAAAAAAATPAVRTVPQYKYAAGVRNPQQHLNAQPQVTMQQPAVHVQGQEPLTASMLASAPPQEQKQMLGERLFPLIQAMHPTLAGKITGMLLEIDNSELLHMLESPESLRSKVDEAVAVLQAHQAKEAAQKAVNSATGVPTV
Cytochrome P450 2C9, sequence (P11712 whole entry): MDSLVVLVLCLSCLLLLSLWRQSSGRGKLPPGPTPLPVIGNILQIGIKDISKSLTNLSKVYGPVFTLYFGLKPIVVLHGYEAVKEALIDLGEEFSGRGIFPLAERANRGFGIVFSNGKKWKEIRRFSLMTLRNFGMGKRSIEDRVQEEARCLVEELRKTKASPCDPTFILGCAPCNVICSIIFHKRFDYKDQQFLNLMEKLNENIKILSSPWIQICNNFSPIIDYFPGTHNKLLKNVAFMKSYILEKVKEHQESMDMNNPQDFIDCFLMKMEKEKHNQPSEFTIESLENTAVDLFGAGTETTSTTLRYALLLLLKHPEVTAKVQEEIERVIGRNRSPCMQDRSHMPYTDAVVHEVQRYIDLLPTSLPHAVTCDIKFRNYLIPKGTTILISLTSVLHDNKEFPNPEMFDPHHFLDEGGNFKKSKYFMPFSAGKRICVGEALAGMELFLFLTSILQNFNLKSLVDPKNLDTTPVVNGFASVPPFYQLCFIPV
Cytochrome P450 2C19, sequence (P33261 whole entry): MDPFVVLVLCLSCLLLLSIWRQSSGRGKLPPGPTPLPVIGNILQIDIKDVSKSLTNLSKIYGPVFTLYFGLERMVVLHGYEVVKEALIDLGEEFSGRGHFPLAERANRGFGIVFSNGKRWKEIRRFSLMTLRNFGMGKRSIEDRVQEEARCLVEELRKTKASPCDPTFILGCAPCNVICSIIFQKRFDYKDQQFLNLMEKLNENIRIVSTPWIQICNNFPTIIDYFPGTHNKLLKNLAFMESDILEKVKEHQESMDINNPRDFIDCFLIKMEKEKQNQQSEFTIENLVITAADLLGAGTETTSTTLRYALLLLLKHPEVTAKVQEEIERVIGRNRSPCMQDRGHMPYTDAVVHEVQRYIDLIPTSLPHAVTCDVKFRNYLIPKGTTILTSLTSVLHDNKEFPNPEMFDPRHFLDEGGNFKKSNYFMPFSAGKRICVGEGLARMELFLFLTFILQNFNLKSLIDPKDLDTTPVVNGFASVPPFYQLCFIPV
Paired box protein Pax-8, sequence (Q06710 whole entry): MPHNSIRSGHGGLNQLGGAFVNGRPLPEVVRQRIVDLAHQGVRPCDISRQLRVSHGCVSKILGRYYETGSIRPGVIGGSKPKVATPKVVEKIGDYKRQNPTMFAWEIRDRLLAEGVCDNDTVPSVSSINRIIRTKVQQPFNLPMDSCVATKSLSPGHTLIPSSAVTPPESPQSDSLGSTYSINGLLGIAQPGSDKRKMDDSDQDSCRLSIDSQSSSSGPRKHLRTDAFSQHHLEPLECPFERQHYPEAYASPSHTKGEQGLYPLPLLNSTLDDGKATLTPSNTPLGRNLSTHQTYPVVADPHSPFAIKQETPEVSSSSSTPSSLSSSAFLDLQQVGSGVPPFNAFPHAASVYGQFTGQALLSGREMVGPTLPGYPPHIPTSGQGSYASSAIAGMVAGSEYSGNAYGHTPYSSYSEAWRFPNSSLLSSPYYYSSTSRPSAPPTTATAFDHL

COc1ccc(CN2C(=O)c3cccc4cccc2c34)cc1F
IC50 [1]: > 20 µM (inactive)

CCCCN1CCC(n2c(=O)[nH]c3ccccc32)CC1
AC50 [2]: inconclusive

Cc1ccc(N=C(S)C2=C(O)c3ccccc3N(C)S2(=O)=O)cc1
IC50 [3]: > 66 µM (inactive) | IC50 [4]: > 66 µM (inactive)

N#CCCn1c(=O)c(-c2ccc(Cl)cc2)nc2cnc(N3CCOCC3)nc21
AC50 [2]: inconclusive

CCN1C(=O)c2cccc3c(NC(=O)c4ccc(S(=O)(=O)N(C)C)cc4)ccc1c23
IC50 [1]: > 20 µM (inactive)

Cc1ccc(C(=O)Nc2ccc3c(c2)nc(CCNC(=O)c2ccco2)n3C)cc1
EC50 [5]: > 350 µM (not active) | EC50 [6]: > 350 µM (not active)

O=C(O)c1cccc(CSc2nc(-c3ccccc3)cc(C(F)(F)F)n2)c1
EC50 [7]: > 150 µM (inactive) | EC50 [8]: 5.9 µM (active)

Cc1cc(C(F)(F)F)nc(SCC(=O)NC2=NC(=O)C(C)S2)n1 (centres undefined)
IC50 [3]: > 66 µM (inactive) | IC50 [4]: > 66 µM (inactive)

OCc1cc(O)c(OCc2ccccc2)cn1
EC50 [5]: > 350 µM (not active) | EC50 [6]: > 350 µM (not active)

Cn1c(=O)c2c(ncn2Cc2ccc(Cl)cc2)n(C)c1=O
IC50 [1]: > 20 µM (inactive)

Cc1ccc(S(=O)(=O)Nc2ccc3c(c2)CC(=O)N([C@H](C)CO)C[C@@H](C)[C@H](CN(C)Cc2ccc(C(F)(F)F)cc2)O3)cc1
AC50 [9]: 8.46 µM (active) | AC50 [10]: 14.1 µM (active) | AC50 [11]: 10.5 µM (active) | AC50 [12]: 17.8 µM (active) | AC50 [13]: 21.6 µM (active)

CCCCN(CC)CCNC(=O)CNC(=O)Cn1ccc2ccccc2c1=O
IC50 [14]: 46.5 µM (not active)

Cc1sc(NC(=O)C2CC=CCC2C(=O)O)c(C(=O)OC(C)C)c1C (centres undefined)
IC50 [15]: 24.1 µM (active)

Cc1noc(C)c1S(=O)(=O)N(C)C[C@@H]1OCCCC[C@H](C)Oc2ccc(NS(=O)(=O)c3ccc(Cl)cc3)cc2C(=O)N([C@H](C)CO)C[C@@H]1C
AC50 [16]: 10.4 µM (active)

Cc1cc(NS(=O)(=O)c2ccc(NC(=S)NC(=O)c3ccc(F)cc3)cc2)no1
IC50 [3]: > 66 µM (inactive) | IC50 [4]: > 66 µM (inactive)

COc1ccc(C(=O)N(CN2CCCC2=O)c2ccc(C)cc2)cc1
EC50 [7]: 66 µM (active) | EC50 [8]: > 38 µM (not active)

CC(C)=NOC(=O)c1c(C)noc1-c1snnc1C
EC50 [5]: > 350 µM (not active) | EC50 [6]: > 350 µM (not active)

O=C(c1ccc(Cl)cc1Cl)N1CCC(c2nc(O)c3nnn(Cc4ccco4)c3n2)CC1
IC50 [14]: > 50 µM (not active)

CCOc1ccc(Nc2nc(Cc3nnc(SCC(=O)O)o3)cs2)cc1
IC50 [15]: 7.08 µM (active)

Cn1cc(CC(=O)N2CCN(c3ccc(Cl)cc3)CC2)c2ccccc21
EC50 [5]: > 350 µM (not active) | EC50 [6]: > 350 µM (not active)

CCSc1nnc(-c2ccccc2/N=C/c2c(C)nn(-c3ccccc3)c2O)c(O)n1
IC50 [15]: 39.6 µM (active)

O=C(NCC(=O)N(Cc1ccco1)C(C(=O)NC1CCCCC1)c1cccnc1)c1cccs1 (centres undefined)
EC50 [5]: > 350 µM (not active) | EC50 [6]: > 350 µM (not active)

CC(=O)Nc1ccc(Nc2nc(C)c([N+](=O)[O-])c(Nc3ccc(NC(C)=O)cc3)n2)cc1
EC50 [5]: > 350 µM (not active) | EC50 [6]: > 350 µM (not active)

C=CCNC(=S)N/N=C/c1ccc(C)s1
IC50 [14]: 27.1 µM (not active)

C[C@H](NC(=O)/C(C#N)=C/c1ccc(O)c(O)c1)c1ccccc1
AC50 [2]: inconclusive | AC50 [17]: 31.6 µM (inconclusive)

CC(Oc1ccccc1Cl)C(=O)Nc1ccc(S(=O)(=O)N2CCN(C)CC2)cc1 (centres undefined)
IC50 [3]: > 66 µM (inactive) | IC50 [4]: > 66 µM (inactive)

CC(=O)c1cc(C#N)c(N2CCCC2)nc1C
EC50 [7]: > 160 µM (inactive) | EC50 [8]: > 38 µM (not active)

COc1ccccc1[C@@H]1C(c2cccc(C)c2)=NN(c2ccccc2)[C@H]1C(=O)N1CCOC1=O
IC50 [1]: > 20 µM (inactive)

O=C1C=C(NNC(=O)c2cccnc2)CC(c2ccco2)C1 (centres undefined)
IC50 [3]: > 66 µM (inactive) | IC50 [4]: > 66 µM (inactive)

CCCCN(C(=O)c1c(C)[nH]c(C(=O)OCC)c1C)c1ccccc1
EC50 [5]: > 350 µM (not active) | EC50 [6]: > 350 µM (not active)

CC(=O)Nc1ccc(Nc2ccc(S(=O)(=O)C(F)(F)F)cc2[N+](=O)[O-])cc1
IC50 [14]: 20 µM (not active)

O=C1c2cccc3cccc(c23)C(=O)N1CCc1ccccc1
IC50 [1]: > 20 µM (inactive)

Cc1ccc(C(=O)O/N=C/c2c(Cl)n(C)c3ccccc23)cc1
AC50 [18]: 1.12 µM (inconclusive) | AC50 [2]: inconclusive

CCO/C(O)=C1/Sc2cc(C)ccc2N=C1C
IC50 [3]: > 66 µM (inactive) | IC50 [4]: > 66 µM (inactive)

CCc1ccc(C(=O)CSc2n[nH]c(C)n2)cc1
IC50 [15]: 63.4 µM (active)

Cc1nn(C)cc1S(=O)(=O)NCc1ccc2c(c1)OCO2
EC50 [5]: > 350 µM (not active) | EC50 [6]: > 350 µM (not active)

COc1ccccc1C#Cc1ccc([C@H]2[C@H](C#N)N(C(=O)C3CCCCC3)[C@H]2CO)cc1
AC50 [9]: 24.5 µM (active) | AC50 [10]: 5.75 µM (active) | AC50 [11]: 43.7 µM (active) | AC50 [12]: 9.53 µM (active) | AC50 [13]: 5.49 µM (active)

OC1(c2cn(Cc3ccccc3)nn2)CCCCC1
IC50 [15]: 61.5 µM (active)

CC(C)NC(=S)N/N=C/C1=CCC2CC1C2(C)C (centres undefined)
IC50 [14]: 49 µM (not active)

c1ccc2nc3[nH]cnc3nc2c1
IC50 [3]: > 66 µM (inactive) | IC50 [4]: > 66 µM (inactive)

Cc1c(O)c([S+]([O-])c2ccccc2)c(=O)n(-c2ccccc2)c1-c1ccccc1 (centres undefined)
IC50 [15]: 15.1 µM (active)
